Assay results as given in PubChem BioAssay (NCI).
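1) Cells in 96-well plates. 2) Compound, 48 h, 5 concentrations. 3) Linear interpolation between surrounding doses. 4) Unreached endpoint = highest concentration. TGI marks complete inhibition of growth.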

Tested on: OVCAR-8 ovarian
Test: growth of human tumour cells (NCI), 48 h

Structure (SMILES) | TGI
Oc1c(CN2CCOCC2)ccc(CN2CCOCC2)c1O | > 100 µM
CCC(O)CC1OC2(CCC1C)CC1OC(=O)/C=C\C(C)(O)C(O)C(C)C(O)C(OC3CC(OC)C(O)C(C)O3)C(O)C(C)(O)CCC/C=C/C3CC(C)COC3(O)CC(O2)C1C (stereo unspecified) | 24.6 µM

Tested on: BT-549 breast
Test: growth of human tumour cells (NCI), 48 h

Structure (SMILES) | TGI
O=C1C=CC(=O)c2c(O)c(N3CCN(c4ccccn4)CC3)c(Cl)c(O)c21 | 3.43 µM
C/C(=N\NC(=S)Nc1ccccc1)c1nc2ncccc2[nH]1 | 26.2 µM
c1cc(-c2ccc(-c3ccc(C4=NCCCN4)cc3)o2)ccc1C1=NCCCN1 | > 100 µM
Oc1c(CN2CCOCC2)ccc(CN2CCOCC2)c1O | > 100 µM
CCC(O)CC1OC2(CCC1C)CC1OC(=O)/C=C\C(C)(O)C(O)C(C)C(O)C(OC3CC(OC)C(O)C(C)O3)C(O)C(C)(O)CCC/C=C/C3CC(C)COC3(O)CC(O2)C1C (stereo unspecified) | 41.2 µM

Tested on: OVCAR-3 ovarian
Test: growth of human tumour cells (NCI), 48 h

Structure (SMILES) | TGI
O=C1C=CC(=O)c2c(O)c(N3CCN(c4ccccn4)CC3)c(Cl)c(O)c21 | 4 µM
C/C(=N\NC(=S)Nc1ccccc1)c1nc2ncccc2[nH]1 | 17.1 µM
c1cc(-c2ccc(-c3ccc(C4=NCCCN4)cc3)o2)ccc1C1=NCCCN1 | > 100 µM
Oc1c(CN2CCOCC2)ccc(CN2CCOCC2)c1O | 66.3 µM
CCC(O)CC1OC2(CCC1C)CC1OC(=O)/C=C\C(C)(O)C(O)C(C)C(O)C(OC3CC(OC)C(O)C(C)O3)C(O)C(C)(O)CCC/C=C/C3CC(C)COC3(O)CC(O2)C1C (stereo unspecified) | 27.2 µM

Tested on: NCI-H23 lung
Test: growth of human tumour cells (NCI), 48 h

Structure (SMILES) | TGI
O=C1C=CC(=O)c2c(O)c(N3CCN(c4ccccn4)CC3)c(Cl)c(O)c21 | 2.45 µM
C/C(=N\NC(=S)Nc1ccccc1)c1nc2ncccc2[nH]1 | 48.7 µM
c1cc(-c2ccc(-c3ccc(C4=NCCCN4)cc3)o2)ccc1C1=NCCCN1 | > 100 µM
Oc1c(CN2CCOCC2)ccc(CN2CCOCC2)c1O | > 100 µM
CCC(O)CC1OC2(CCC1C)CC1OC(=O)/C=C\C(C)(O)C(O)C(C)C(O)C(OC3CC(OC)C(O)C(C)O3)C(O)C(C)(O)CCC/C=C/C3CC(C)COC3(O)CC(O2)C1C (stereo unspecified) | 71 µM

Tested on: SF-295 CNS
Test: growth of human tumour cells (NCI), 48 h

Structure (SMILES) | TGI
O=C1C=CC(=O)c2c(O)c(N3CCN(c4ccccn4)CC3)c(Cl)c(O)c21 | 10.7 µM
C/C(=N\NC(=S)Nc1ccccc1)c1nc2ncccc2[nH]1 | 18.3 µM
c1cc(-c2ccc(-c3ccc(C4=NCCCN4)cc3)o2)ccc1C1=NCCCN1 | > 100 µM
Oc1c(CN2CCOCC2)ccc(CN2CCOCC2)c1O | 96.3 µM
CCC(O)CC1OC2(CCC1C)CC1OC(=O)/C=C\C(C)(O)C(O)C(C)C(O)C(OC3CC(OC)C(O)C(C)O3)C(O)C(C)(O)CCC/C=C/C3CC(C)COC3(O)CC(O2)C1C (stereo unspecified) | > 41.8 µM

Tested on: NCI-H522 lung
Test: growth of human tumour cells (NCI), 48 h

Structure (SMILES) | TGI
O=C1C=CC(=O)c2c(O)c(N3CCN(c4ccccn4)CC3)c(Cl)c(O)c21 | 3.5 µM
C/C(=N\NC(=S)Nc1ccccc1)c1nc2ncccc2[nH]1 | 17.1 µM
c1cc(-c2ccc(-c3ccc(C4=NCCCN4)cc3)o2)ccc1C1=NCCCN1 | > 100 µM
Oc1c(CN2CCOCC2)ccc(CN2CCOCC2)c1O | > 100 µM
CCC(O)CC1OC2(CCC1C)CC1OC(=O)/C=C\C(C)(O)C(O)C(C)C(O)C(OC3CC(OC)C(O)C(C)O3)C(O)C(C)(O)CCC/C=C/C3CC(C)COC3(O)CC(O2)C1C (stereo unspecified) | 16.3 µM

Tested on: MALME-3M melanoma
Test: growth of human tumour cells (NCI), 48 h

Structure (SMILES) | TGI
O=C1C=CC(=O)c2c(O)c(N3CCN(c4ccccn4)CC3)c(Cl)c(O)c21 | 3.05 µM
C/C(=N\NC(=S)Nc1ccccc1)c1nc2ncccc2[nH]1 | 57.7 µM
c1cc(-c2ccc(-c3ccc(C4=NCCCN4)cc3)o2)ccc1C1=NCCCN1 | > 100 µM
Oc1c(CN2CCOCC2)ccc(CN2CCOCC2)c1O | > 100 µM
CCC(O)CC1OC2(CCC1C)CC1OC(=O)/C=C\C(C)(O)C(O)C(C)C(O)C(OC3CC(OC)C(O)C(C)O3)C(O)C(C)(O)CCC/C=C/C3CC(C)COC3(O)CC(O2)C1C (stereo unspecified) | 35.5 µM

Tested on: K-562 leukemia
Test: growth of human tumour cells (NCI), 48 h

Structure (SMILES) | TGI
C/C(=N\NC(=S)Nc1ccccc1)c1nc2ncccc2[nH]1 | 60.8 µM
c1cc(-c2ccc(-c3ccc(C4=NCCCN4)cc3)o2)ccc1C1=NCCCN1 | > 100 µM
Oc1c(CN2CCOCC2)ccc(CN2CCOCC2)c1O | > 100 µM

Tested on: SK-MEL-2 melanoma
Test: growth of human tumour cells (NCI), 48 h

Structure (SMILES) | TGI
C/C(=N\NC(=S)Nc1ccccc1)c1nc2ncccc2[nH]1 | 47 µM
c1cc(-c2ccc(-c3ccc(C4=NCCCN4)cc3)o2)ccc1C1=NCCCN1 | > 100 µM
Oc1c(CN2CCOCC2)ccc(CN2CCOCC2)c1O | 94.6 µM
CCC(O)CC1OC2(CCC1C)CC1OC(=O)/C=C\C(C)(O)C(O)C(C)C(O)C(OC3CC(OC)C(O)C(C)O3)C(O)C(C)(O)CCC/C=C/C3CC(C)COC3(O)CC(O2)C1C (stereo unspecified) | 29.6 µM

Tested on: SN12C renal
Test: growth of human tumour cells (NCI), 48 h

Structure (SMILES) | TGI
O=C1C=CC(=O)c2c(O)c(N3CCN(c4ccccn4)CC3)c(Cl)c(O)c21 | 3.36 µM
C/C(=N\NC(=S)Nc1ccccc1)c1nc2ncccc2[nH]1 | 36.3 µM
c1cc(-c2ccc(-c3ccc(C4=NCCCN4)cc3)o2)ccc1C1=NCCCN1 | 95.7 µM
Oc1c(CN2CCOCC2)ccc(CN2CCOCC2)c1O | 88.4 µM
CCC(O)CC1OC2(CCC1C)CC1OC(=O)/C=C\C(C)(O)C(O)C(C)C(O)C(OC3CC(OC)C(O)C(C)O3)C(O)C(C)(O)CCC/C=C/C3CC(C)COC3(O)CC(O2)C1C (stereo unspecified) | > 77.3 µM

Tested on: TK-10 renal
Test: growth of human tumour cells (NCI), 48 h

Structure (SMILES) | TGI
O=C1C=CC(=O)c2c(O)c(N3CCN(c4ccccn4)CC3)c(Cl)c(O)c21 | 4.94 µM
c1cc(-c2ccc(-c3ccc(C4=NCCCN4)cc3)o2)ccc1C1=NCCCN1 | > 100 µM
Oc1c(CN2CCOCC2)ccc(CN2CCOCC2)c1O | > 100 µM
CCC(O)CC1OC2(CCC1C)CC1OC(=O)/C=C\C(C)(O)C(O)C(C)C(O)C(OC3CC(OC)C(O)C(C)O3)C(O)C(C)(O)CCC/C=C/C3CC(C)COC3(O)CC(O2)C1C (stereo unspecified) | 37 µM

Tested on: UACC-257 melanoma
Test: growth of human tumour cells (NCI), 48 h

Structure (SMILES) | TGI
O=C1C=CC(=O)c2c(O)c(N3CCN(c4ccccn4)CC3)c(Cl)c(O)c21 | 3.87 µM
C/C(=N\NC(=S)Nc1ccccc1)c1nc2ncccc2[nH]1 | 11.1 µM
c1cc(-c2ccc(-c3ccc(C4=NCCCN4)cc3)o2)ccc1C1=NCCCN1 | > 100 µM
Oc1c(CN2CCOCC2)ccc(CN2CCOCC2)c1O | 88.7 µM
CCC(O)CC1OC2(CCC1C)CC1OC(=O)/C=C\C(C)(O)C(O)C(C)C(O)C(OC3CC(OC)C(O)C(C)O3)C(O)C(C)(O)CCC/C=C/C3CC(C)COC3(O)CC(O2)C1C (stereo unspecified) | 15.4 µM

Tested on: RXF 393 renal
Test: growth of human tumour cells (NCI), 48 h

Structure (SMILES) | TGI
O=C1C=CC(=O)c2c(O)c(N3CCN(c4ccccn4)CC3)c(Cl)c(O)c21 | 3.16 µM
c1cc(-c2ccc(-c3ccc(C4=NCCCN4)cc3)o2)ccc1C1=NCCCN1 | > 100 µM
Oc1c(CN2CCOCC2)ccc(CN2CCOCC2)c1O | > 100 µM
CCC(O)CC1OC2(CCC1C)CC1OC(=O)/C=C\C(C)(O)C(O)C(C)C(O)C(OC3CC(OC)C(O)C(C)O3)C(O)C(C)(O)CCC/C=C/C3CC(C)COC3(O)CC(O2)C1C (stereo unspecified) | > 100 µM

Tested on: HOP-62 NSCLC
Test: growth of human tumour cells (NCI), 48 h

Structure (SMILES) | TGI
O=C1C=CC(=O)c2c(O)c(N3CCN(c4ccccn4)CC3)c(Cl)c(O)c21 | 9.58 µM
C/C(=N\NC(=S)Nc1ccccc1)c1nc2ncccc2[nH]1 | 59 µM
c1cc(-c2ccc(-c3ccc(C4=NCCCN4)cc3)o2)ccc1C1=NCCCN1 | > 100 µM
Oc1c(CN2CCOCC2)ccc(CN2CCOCC2)c1O | > 100 µM
CCC(O)CC1OC2(CCC1C)CC1OC(=O)/C=C\C(C)(O)C(O)C(C)C(O)C(OC3CC(OC)C(O)C(C)O3)C(O)C(C)(O)CCC/C=C/C3CC(C)COC3(O)CC(O2)C1C (stereo unspecified) | 35.7 µM

Tested on: HT29 colon
Test: growth of human tumour cells (NCI), 48 h

Structure (SMILES) | TGI
O=C1C=CC(=O)c2c(O)c(N3CCN(c4ccccn4)CC3)c(Cl)c(O)c21 | 2.05 µM
C/C(=N\NC(=S)Nc1ccccc1)c1nc2ncccc2[nH]1 | 18.8 µM
c1cc(-c2ccc(-c3ccc(C4=NCCCN4)cc3)o2)ccc1C1=NCCCN1 | > 100 µM
Oc1c(CN2CCOCC2)ccc(CN2CCOCC2)c1O | > 100 µM
CCC(O)CC1OC2(CCC1C)CC1OC(=O)/C=C\C(C)(O)C(O)C(C)C(O)C(OC3CC(OC)C(O)C(C)O3)C(O)C(C)(O)CCC/C=C/C3CC(C)COC3(O)CC(O2)C1C (stereo unspecified) | 35.1 µM

Tested on: CCRF-CEM leukemia
Test: growth of human tumour cells (NCI), 48 h

Structure (SMILES) | TGI
O=C1C=CC(=O)c2c(O)c(N3CCN(c4ccccn4)CC3)c(Cl)c(O)c21 | 1.84 µM
c1cc(-c2ccc(-c3ccc(C4=NCCCN4)cc3)o2)ccc1C1=NCCCN1 | > 100 µM
Oc1c(CN2CCOCC2)ccc(CN2CCOCC2)c1O | 12.9 µM
CCC(O)CC1OC2(CCC1C)CC1OC(=O)/C=C\C(C)(O)C(O)C(C)C(O)C(OC3CC(OC)C(O)C(C)O3)C(O)C(C)(O)CCC/C=C/C3CC(C)COC3(O)CC(O2)C1C (stereo unspecified) | > 60.5 µM
